Results on four compounds are retold here after US20220306695A1, “COMPSTATIN ANALOGUES AND THEIR MEDICAL USES” (priority 2019, published 2022).

One data set addresses T1, Human C3 (Homo sapiens, UniProt P01024).
T1 construct: purchased Complement tech A1 13c (so in the source)
The data set can be described thus: Affinity measurement by surface plasmon resonance (SPR) with immobilized C3. It is filed as binding. Conditions: Table 7; immobilized C3, 25° C., pH 7.4. A general note: Surface plasmon resonance follows binding to a sensor surface in real time, without labels.

Another data set in a line: in vivo. Details: species or system Cynomolgus monkeys (Macaca fascicularis). The following applies: male, cynomolgus monkey, sc, 1840 nmol/kg; for half-life: t½. In short, it runs like this:
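Healthy male cynomolgus monkeys dosed once subcutaneously at 1840 nmol/kg in 20 mM phosphate pH 7.5 with mannitol. Serum sampled pre-dose to 120 h and total drug measured by SPE and LC-MS/MS. Terminal half-life calculated non-compartmentally as ln(2)/λz from the terminal log-linear phase.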

Data set [1] deals with classical complement pathway. The data set can be described thus: In vitro haemolysis assay (inhibition of classical complement pathway). It is filed as cell-based, human. The following applies: Table 3; human serum, sensitized sheep red blood cells; read-out: IC50[nM], in vitro analysis of inhibition of hemolysis. In outline: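 Serially diluted compound (9 points) was preincubated 15 min at room temperature with diluted human serum, titrated per batch to give 70-90% maximal haemolysis, in Tris/casein buffer pH 7.4 with Mg2+/Ca2+. Antibody-sensitized sheep erythrocytes were then added for 30 min at 37° C, and the reaction was stopped with EDTA. Haemolysis was read at A405, with IC50 from 4PL fit.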

Data set [2] can be described thus: Solubility test at 10 mg/mL (visual inspection and light scattering). The data set is classed as physicochemical. Conditions: for Solubility, Condition 1 Acetate pH 4: 10 mg/mL compound in 100 mM acetate pH 4; for Solubility, Condition 2 Acetate pH 5: 10 mg/mL compound in 100 mM acetate pH 5; for Solubility, Condition 3 Phosphate pH 6: 10 mg/mL compound in 100 mM phosphate pH 6; for Solubility, Condition 4 Phosphate pH 7: 10 mg/mL compound in 100 mM phosphate pH 7; for Solubility, Condition 5 Phosphate pH 7.5: 10 mg/mL compound in 100 mM phosphate pH 7.5.

Data set [3] is classed as physicochemical. The following applies: 50 mg/mL peptide; for Covalent oligomer content after 14 days 40° C. (%), F1 / Purity after 14 days 40° C. (%), F1: F1: 20 mM phosphate pH 5.5; for Covalent oligomer content after 14 days 40° C. (%), F1 / Covalent oligomer content after 14 days 40° C. (%), F2: denaturing SEC; for Purity after 14 days 40° C. (%), F1 / Purity after 14 days 40° C. (%), F2 / Purity after 14 days 40° C. (%), F3: normalized purity (HPLC). The procedure:
Chemical stability of compstatin analogues with cystathionine or disulfide bridge. Stability was assessed in three formulations at 50 mg/mL peptide, F1:20 mM phosphate pH 5.5, F2:20 mM phosphate pH 6.5 and F3:20 mM phosphate pH 7.5. The formulations were prepared by direct dissolution of peptide from lyophilized portions in the respective formulations. pH was adjusted to target with 1 M NaOH and 1 M HCl. Chemical stability was assessed under accelerated conditions (14 days, 40° C.) and evaluated as change in purity by reverse phase HPLC, and change in covalent oligomer content by denaturing SEC. The formulations were placed at 40° C. with analysis points at T=0, 7 and 14 days. On each time point a small volume was extracted and diluted to 2 mg/mL and tested by reverse phase HPLC and denaturing SEC. Purity was assessed by reverse phase HPLC using an Ultimate 3000 system for binary gradient application equipped with a Kinetix C18 column (cat. no. 00F-4462-Y0, 150 mm×3 mm, 2.6 μm) run at 0.5 ml/min with a gradient of buffer A (0.3% TFA, aq.) and buffer B (0.3% TFA, 90% MeCN, aq.) gradient from 40% B to 70% B over 20 min. Detection was done using a diode array detector set to 220 nm. Covalent oligomer formation was assessed by denaturing SEC (size exclusion chromatography) using an Ultimate 3000 system equipped with a TSKgel SuperSW 2000 column (cat. no. 818674, 300 mm×3 mm, 4 μm) run at 0.5 ml/min with isocratic flow of buffer A (0.1% TFA, 45% MeCN, aq.), 10 min. Detection was done using a diode array detector set to 215 nm. Compounds 126 and 156 were carefully weighed out and dissolved in formulations F1, F2 and F3 to a target concentration of 50 mg/mL. Once visually dissolved, concentration was confirmed by absorbance at 280 nm, and samples were placed in stability at 40° C. Samples for analysis were extracted on T=0, 7 and 14 days from a 40° C. climate chamber. The extracted volume was dissolved 1:25 (final concentration: 2 mg/mL) in 20 mM phosphate pH 5.5, 6.5 or 7.5 and measured by reverse phase HPLC and denaturing SEC by injection of 0.4 μL (column load […]). The resulting chromatograms were integrated to determine chemical purity by reverse phase HPLC and covalent oligomer content by denaturing SEC.

Like-named read-outs stand apart in the source and are kept apart here. Starred links: 1 amine or outer side, 2 acyl side, 3 side chain; linkers in the order of their positions; H or OH if unused. Positions of bridges follow the written chain, without caps; N, C: chain ends. Non-standard residues stand in square brackets, D forms with d. Residues, ends and D or L forms follow the SMILES beside them. Groups on a side chain read outwards from the residue. *: point of attachment. Trp(1-Me) = Cn1cc(C[C@H](N)C(=O)O)c2ccccc21; C18 diacid = O=C(O)CCCCCCCCCCCCCCCCC(=O)*; γGlu = O=C(O)[C@H](CCC(=O)[*:2])N[*:1]; AEEA = NCCOCCOCC(=O)O; Sar = CNCC(=O)O Where only a bound is given, the exact number is not on record here.

In the case of `CC[C@H](C)[C@@H]1NC(=O)[C@@H](NC(=O)[C@H](Cc2ccc(O)cc2)NC(=O)[C@H](CCC(=O)O)NC(=O)[C@H](CO)NC(C)=O)CSSC[C@@H](C(=O)N(C)CC(=O)N[C@@H](CCC(=O)O)C(=O)NCC(=O)N[C@@H](C)C(=O)N[C@@H](CCCCNC(=O)COCCOCCNC(=O)CC[C@H](NC(=O)COCCOCCNC(=O)CNC(=O)CC[C@H](NC(=O)CCCCCCCCCCCCCCCCC(=O)O)C(=O)O)C(=O)O)C(N)=O)NC(=O)[C@H](CCCNC(=N)N)NC(=O)[C@H](Cc2c[nH]cn2)NC(=O)[C@H](CCC(=O)O)NC(=O)CNC(=O)[C@H](Cc2c[nH]c3ccccc23)NC(=O)[C@H](CC(=O)O)NC(=O)[C@H](CCC(N)=O)NC(=O)[C@H](Cc2cn(C)c3ccccc23)NC1=O` [Compound 118] (Ac-SEYCI[Trp(1-Me)]QDWGEHRC[Sar]EGAK([AEEA-γGlu-AEEA-Gly-γGlu-C18 diacid])-NH2; disulfide 4-14), at Human C3, the affinity, expressed as Kd, was 0.011 µM. For the same compound, in “in vivo”, the t½ was found to be 155 h and the half-life was 78.7 h. Also, the IC50 in data set [1] was less than 100 nM. Besides, in data set [2], the “Solubility, Condition 1 Acetate pH 4” value was “− (denotes lack of solubility at the given condition, as UV absorbance at 340 nm exceeds 0.1 AU and/or it is visibly turbid or contains particles.)”; the “Solubility, Condition 2 Acetate pH 5” value is “+ (denotes solubility at the given condition, as determined by UV absorbance being less than 0.1 AU at 340 nm and the sample being clear when manually inspected.)”; the “Solubility, Condition 3 Phosphate pH 6” value was “+ (denotes solubility at the given condition, as determined by UV absorbance being less than 0.1 AU at 340 nm and the sample being clear when manually inspected.)”; the “Solubility, Condition 4 Phosphate pH 7” value was “+ (denotes solubility at the given condition, as determined by UV absorbance being less than 0.1 AU at 340 nm and the sample being clear when manually inspected.)”. For the same compound, the “Solubility, Condition 5 Phosphate pH 7.5” value in data set [2] is “+ (denotes solubility at the given condition, as determined by UV absorbance being less than 0.1 AU at 340 nm and the sample being clear when manually inspected.)”.

As for `CC[C@H](C)[C@@H]1NC(=O)[C@@H](NC(=O)[C@H](Cc2ccc(O)cc2)NC(=O)[C@H](C)NC(=O)[C@H](CO)NC(=O)CNC(=O)[C@H](CCC(=O)O)NC(C)=O)CSSC[C@@H](C(=O)N(C)CC(=O)N[C@@H](CCC(=O)O)C(=O)N[C@@H](CCCCN)C(=O)N[C@@H](CCC(=O)N[C@@H](CCCCNC(=O)COCCOCCNC(=O)COCCOCCNC(=O)CC[C@H](NC(=O)CCCCCCCCCCCCCCCCC(=O)O)C(=O)O)C(N)=O)C(=O)O)NC(=O)[C@H](CCCNC(=N)N)NC(=O)[C@H](Cc2c[nH]cn2)NC(=O)[C@H](CCC(=O)O)NC(=O)CNC(=O)[C@H](Cc2c[nH]c3ccccc23)NC(=O)[C@H](CC(=O)O)NC(=O)[C@H](CCC(N)=O)NC(=O)[C@H](Cc2cn(C)c3ccccc23)NC1=O` [Compound 111] (Ac-EGSAYCI[Trp(1-Me)]QDWGEHRC[Sar]EK[γGlu]K([AEEA-AEEA-γGlu-C18 diacid])-NH2; disulfide 6-16), in data set [3], the “Covalent oligomer content after 14 days 40° C. (%), F1” value is 30% and the “Purity after 14 days 40° C. (%), F1” value is 80%. In data set [3] (F2: 20 mM phosphate pH 6.5), the “Covalent oligomer content after 14 days 40° C. (%), F2” value (from here on “Covalent oligomer content … (%), F2”) is recorded as 77% and the “Purity after 14 days 40° C. (%), F2” value came to 24%. Moreover, in data set [3] (F3: 20 mM phosphate pH 7.5), the “Covalent oligomer content … (%), F2” value is on record as 61% and the “Purity after 14 days 40° C. (%), F3” value stood at 33%. Moreover, the half-life in “in vivo” was 157 h. In addition, the concentration for half-maximal inhibition (IC50) in data set [1] is less than 100 nM. For the same compound, in data set [2], the “Solubility, Condition 1 Acetate pH 4” value is recorded as “− (denotes lack of solubility at the given condition, as UV absorbance at 340 nm exceeds 0.1 AU and/or it is visibly turbid or contains particles.)”; the “Solubility, Condition 2 Acetate pH 5” value is on record as “− (denotes lack of solubility at the given condition, as UV absorbance at 340 nm exceeds 0.1 AU and/or it is visibly turbid or contains particles.)”; the “Solubility, Condition 3 Phosphate pH 6” value is “+ (denotes solubility at the given condition, as determined by UV absorbance being less than 0.1 AU at 340 nm and the sample being clear when manually inspected.)”; the “Solubility, Condition 4 Phosphate pH 7” value is “+ (denotes solubility at the given condition, as determined by UV absorbance being less than 0.1 AU at 340 nm and the sample being clear when manually inspected.)”. Moreover, the “Solubility, Condition 5 Phosphate pH 7.5” value in data set [2] was “+ (denotes solubility at the given condition, as determined by UV absorbance being less than 0.1 AU at 340 nm and the sample being clear when manually inspected.)”.

The compound `CC[C@H](C)[C@@H]1NC(=O)[C@@H](NC(=O)[C@H](Cc2ccccc2)NC(=O)[C@H](CCC(=O)O)NC(=O)[C@H](CO)NC(C)=O)CSSC[C@@H](C(=O)N(C)CC(=O)N[C@@H](CCC(=O)O)C(=O)NCC(=O)N[C@@H](CCC(=O)O)C(=O)NCCOCCOCC(=O)NCCOCCOCC(=O)N[C@@H](CCCCNC(=O)CC[C@H](NC(=O)CNC(=O)CC[C@H](NC(=O)CCCCCCCCCCCCCCCCC(=O)O)C(=O)O)C(=O)O)C(N)=O)NC(=O)[C@H](CCCNC(=N)N)NC(=O)[C@H](Cc2c[nH]cn2)NC(=O)[C@H](CCC(=O)O)NC(=O)CNC(=O)[C@H](Cc2c[nH]c3ccccc23)NC(=O)[C@H](CC(=O)O)NC(=O)[C@H](CCC(N)=O)NC(=O)[C@H](Cc2cn(C)c3ccccc23)NC1=O` [Compound 123] (Ac-SEFCI[Trp(1-Me)]QDWGEHRC[Sar]EGE[AEEA][AEEA]K([γGlu-Gly-γGlu-C18 diacid])-NH2; disulfide 4-14) gave a Kd on Human C3 of 0.011 µM. Besides, in data set [3], the “Covalent oligomer content after 14 days 40° C. (%), F1” value worked out at 52% and the “Purity after 14 days 40° C. (%), F1” value is 56%. In data set [3] (F2: 20 mM phosphate pH 6.5), the “Covalent oligomer content … (%), F2” value stood at 48% and the “Purity after 14 days 40° C. (%), F2” value came out at 54%. Besides, in data set [3] (F3: 20 mM phosphate pH 7.5), the “Covalent oligomer content … (%), F2” value turned out to be 45% and the “Purity after 14 days 40° C. (%), F3” value stood at 54%. Moreover, in “in vivo”, the half-life is 105 h. Also, the IC50 in data set [1] was less than 100 nM.

On to `CC[C@H](C)[C@@H]1NC(=O)[C@@H](NC(=O)[C@H](Cc2ccc(O)cc2)NC(=O)[C@H](C)NC(=O)[C@H](CO)NC(C)=O)CSSC[C@@H](C(=O)N(C)CC(=O)N[C@@H](CCC(=O)O)C(=O)N[C@@H](CCCCNC(=O)CC[C@H](NC(=O)CNC(=O)CC[C@H](NC(=O)CCCCCCCCCCCCCCCCC(=O)O)C(=O)O)C(=O)O)C(N)=O)NC(=O)[C@H](CCCNC(=N)N)NC(=O)[C@H](Cc2c[nH]cn2)NC(=O)[C@H](CCC(=O)O)NC(=O)CNC(=O)[C@H](Cc2c[nH]c3ccccc23)NC(=O)[C@H](CC(=O)O)NC(=O)[C@H](CCC(N)=O)NC(=O)[C@H](Cc2cn(C)c3ccccc23)NC1=O` [Compound 106] (Ac-SAYCI[Trp(1-Me)]QDWGEHRC[Sar]EK([γGlu-Gly-γGlu-C18 diacid])-NH2; disulfide 4-14), for which binding at Human C3 was put at a Kd of 0.0054 µM. This compound had a half-life in the data set “in vivo” of 93.9 h. The IC50 in data set [1] is less than 250 nM.

The Kd is the equilibrium constant for the complex coming apart. Read a high Kd as lower affinity. The t½ is how long it takes for the measured level to halve. High values mean slow loss, low ones fast loss. The half-life is the time needed for the level to fall by half in the phase considered. A high value points to slow loss. The IC50 is the concentration that inhibits the measured activity by half.
